From US20210186960A1, “MODULATORS OF INDOLEAMINE 2,3-DIOXYGENASE” (GLAXOSMITHKLINE INTELLECTUAL PROPERTY DEVELOPMENT LIMITED, priority 2017, published 2021)
Like-named read-outs stand apart in the source and are kept apart here.

Tests used:
[1] = Plasma PK and tissue distribution after oral dosing of INTERMEDIATE C4 (3 mg/kg); assay type: in vivo; settings: PO 3 mg/kg INTERMEDIATE C4, male Wistar Han rat; for Kp at 1 h / Kp at 4 h / Kp at 8 h / Kp / concentration at 1 h / concentration at 4 h / concentration at 8 h: male, Wistar Han, rat, po
Protocol: Tissue Distribution of drug intermediate C4 from oral dosing of C4 and of intermediate C4 from oral dosing of example 7 in rats
• Wistar Han rat, 185-197 g, male, N=8, purchased from Beijing Vital River Co. LTD. Qualification No.: SCXK(J) 2016-0011 11400700240027. Fasted overnight and fed 4 hr post dose. PO: 3 mg/kg (10 mL/kg) via oral gavage(N=8). Sampling at 1, 4, 8 and 24 hr , 4 time points, terminal bleeding for plasma, liver, lymph nodes and spleen collected at each time point.

[2] = Rat oral PK studies of prodrugs at 5 mg/kg; assay type: in vivo; settings: after PO dose of 5 mg/kg example 7 in male Wistar Han rat; analyte as labelled
Protocol: Rat oral PK studies of prodrugs at 5 mg/kg dose (solution in 100% (40 mg oleic acid+25mg Tween 80+2 mL of PBS/fresh) at 0.5 mg/mL).

For `CC(C)CN(c1ccc([C@H](C)CC(=O)O)cc1Nc1cnc(Cl)cn1)C1CCOCC1` [intermediate C4], the “Liver to plasma ratio individual” value ([1]; 1 hr, 3 mg/kg) was 8.11, the “Lymph node to plasma ratio individual” value ([1]; 1 hr, 3 mg/kg) was 0.254 and the “Spleen to plasma ratio individual” value ([1]; 1 hr, 3 mg/kg) was 0.197. For the same molecule, the “liver Concentration individual” value ([1]; 1 hr, 3 mg/kg) was 2570 ng/g, the “lymph node Concentration individual” value ([1]; 1 hr, 3 mg/kg) was 80.4 ng/g and the “plasma Concentration individual” value ([1]; 1 hr, 3 mg/kg) was 0.317 µg/mL. For the same molecule, the “spleen Concentration individual” value ([1]; 1 hr, 3 mg/kg) was 62.4 ng/g, the “Liver to plasma ratio individual” value ([1]; 4 hr, 3 mg/kg) was 14.7 and the “Lymph node to plasma ratio individual” value ([1]; 4 hr, 3 mg/kg) was 0.905. The “Spleen to plasma ratio individual” value ([1]; 4 hr, 3 mg/kg) was 0.333, the “liver Concentration individual” value ([1]; 4 hr, 3 mg/kg) was 898 ng/g and the “lymph node Concentration individual” value ([1]; 4 hr, 3 mg/kg) was 55.4 ng/g. For the same molecule, the “plasma Concentration individual” value ([1]; 4 hr, 3 mg/kg) was 0.0612 µg/mL, the “spleen Concentration individual” value ([1]; 4 hr, 3 mg/kg) was 20.4 ng/g and the “spleen Concentration Mean” value ([1]; 8 hr) was “BQL”. For the same molecule, the “spleen Concentration individual” value ([1]; 8 hr) was “BQL”, the “Liver to plasma ratio individual” value ([1]; 8 hr, 3 mg/kg) was 13.2 and the “liver Concentration individual” value ([1]; 8 hr, 3 mg/kg) was 299 ng/g. For the same molecule, the “lymph node Concentration individual” value ([1]; 8 hr, 3 mg/kg) was “BQL”, the “plasma Concentration individual” value ([1]; 8 hr, 3 mg/kg) was 0.0227 µg/mL and the “liver Concentration Mean” value ([1]; 24 hr) was “BQL”. The “liver Concentration individual” value ([1]; 24 hr) was “BQL”, the “lymph node Concentration Mean” value ([1]; 24 hr) was “BQL” and the “lymph node Concentration individual” value ([1]; 24 hr) was “BQL”. For the same molecule, the “plasma Concentration Mean” value ([1]; 24 hr) was “BQL”, the “plasma Concentration individual” value ([1]; 24 hr) was “BQL” and the “spleen Concentration Mean” value ([1]; 24 hr) was “BQL”. The “spleen Concentration individual” value ([1]; 24 hr) was “BQL”, the AUC(0-t) ([1]; liver, read-out: AUClast (liver)) was 10.2 µg·h/mL and the AUC(0-t) ([1]; lymph node, read-out: AUClast (lymph node)) was 0.381 µg·h/mL. It also gave a Kp at 1 h ([1]; liver / plasma, 3 mg/kg, 1 hr, read-out: Liver to plasma ratio Mean) of 9.31, a Kp at 1 h ([1]; liver / plasma, 3 mg/kg, 1 hr, read-out: Liver to plasma ratio individual) of 10.5 and a Kp at 4 h ([1]; liver / plasma, 3 mg/kg, 4 hr, read-out: Liver to plasma ratio Mean) of 13.7. For the same molecule, the Kp at 4 h ([1]; liver / plasma, 3 mg/kg, 4 hr, read-out: Liver to plasma ratio individual) was 12.7, the Kp at 8 h ([1]; liver / plasma, 3 mg/kg, 8 hr, read-out: Liver to plasma ratio Mean) was 14.6 and the Kp at 8 h ([1]; liver / plasma, 3 mg/kg, 8 hr, read-out: Liver to plasma ratio individual) was 16. The Kp ([1]; liver / plasma, 3 mg/kg, read-out: AUCliver/AUCplasma) was 10.7, the concentration at 1 h ([1]; liver, 3 mg/kg, 1 hr, read-out: liver Concentration Mean) was 3130 ng/g and the concentration at 1 h ([1]; liver, 3 mg/kg, 1 hr, read-out: liver Concentration individual) was 3690 ng/g. For the same molecule, the concentration at 4 h ([1]; liver, 3 mg/kg, 4 hr, read-out: liver Concentration Mean) was 883 ng/g, the concentration at 4 h ([1]; liver, 3 mg/kg, 4 hr, read-out: liver Concentration individual) was 868 ng/g and the concentration at 8 h ([1]; liver, 3 mg/kg, 8 hr, read-out: liver Concentration Mean) was 420 ng/g. The concentration at 8 h ([1]; liver, 3 mg/kg, 8 hr, read-out: liver Concentration individual) was 540 ng/g, the Kp at 1 h ([1]; lymph node / plasma, 3 mg/kg, 1 hr, read-out: Lymph node to plasma ratio Mean) was 0.293 and the Kp at 1 h ([1]; lymph node / plasma, 3 mg/kg, 1 hr, read-out: Lymph node to plasma ratio individual) was 0.333. The Kp at 4 h ([1]; lymph node / plasma, 3 mg/kg, 4 hr, read-out: Lymph node to plasma ratio Mean) was 0.716, the Kp at 4 h ([1]; lymph node / plasma, 3 mg/kg, 4 hr, read-out: Lymph node to plasma ratio individual) was 0.526 and the Kp at 8 h ([1]; lymph node / plasma, 3 mg/kg, 8 hr, read-out: Lymph node to plasma ratio Mean) was 0.353. It also gave a Kp at 8 h ([1]; lymph node / plasma, 3 mg/kg, 8 hr, read-out: Lymph node to plasma ratio individual) of 0.353, a Kp ([1]; lymph node / plasma, 3 mg/kg, read-out: AUClimphnode/AUCplasma) of 0.401 and a concentration at 1 h ([1]; lymph node, 3 mg/kg, 1 hr, read-out: lymph node Concentration Mean) of 98.7 ng/g. The concentration at 1 h ([1]; lymph node, 3 mg/kg, 1 hr, read-out: lymph node Concentration individual) was 117 ng/g, the concentration at 4 h ([1]; lymph node, 3 mg/kg, 4 hr, read-out: lymph node Concentration Mean) was 45.7 ng/g and the concentration at 4 h ([1]; lymph node, 3 mg/kg, 4 hr, read-out: lymph node Concentration individual) was 35.9 ng/g. The concentration at 8 h ([1]; lymph node, 3 mg/kg, 8 hr, read-out: lymph node Concentration Mean) was 11.9 ng/g, the concentration at 8 h ([1]; lymph node, 3 mg/kg, 8 hr, read-out: lymph node Concentration individual) was 11.9 ng/g and the concentration at 1 h ([1]; plasma, 3 mg/kg, 1 hr, read-out: plasma Concentration Mean) was 0.334 µg/mL. For the same molecule, the concentration at 1 h ([1]; plasma, 3 mg/kg, 1 hr, read-out: plasma Concentration individual) was 0.351 µg/mL, the concentration at 4 h ([1]; plasma, 3 mg/kg, 4 hr, read-out: plasma Concentration Mean) was 0.0647 µg/mL and the concentration at 4 h ([1]; plasma, 3 mg/kg, 4 hr, read-out: plasma Concentration individual) was 0.0682 µg/mL. It also gave a concentration at 8 h ([1]; plasma, 3 mg/kg, 8 hr, read-out: plasma Concentration Mean) of 0.0282 µg/mL, a concentration at 8 h ([1]; plasma, 3 mg/kg, 8 hr, read-out: plasma Concentration individual) of 0.0337 µg/mL and a concentration at 1 h ([1]; spleen, 3 mg/kg, 1 hr, read-out: spleen Concentration Mean) of 63.9 ng/g. The concentration at 1 h ([1]; spleen, 3 mg/kg, 1 hr, read-out: spleen Concentration individual) was 65.3 ng/g, the concentration at 4 h ([1]; spleen, 3 mg/kg, 4 hr, read-out: spleen Concentration Mean) was 19.9 ng/g and the concentration at 4 h ([1]; spleen, 3 mg/kg, 4 hr, read-out: spleen Concentration individual) was 19.3 ng/g. For the same molecule, the Kp at 1 h ([1]; spleen/plasma, 3 mg/kg, 1 hr, read-out: Spleen to plasma ratio Mean) was 0.191, the Kp at 1 h ([1]; spleen/plasma, 3 mg/kg, 1 hr, read-out: Spleen to plasma ratio individual) was 0.186 and the Kp at 4 h ([1]; spleen/plasma, 3 mg/kg, 4 hr, read-out: Spleen to plasma ratio Mean) was 0.308. The Kp at 4 h ([1]; spleen/plasma, 3 mg/kg, 4 hr, read-out: Spleen to plasma ratio individual) was 0.283, the Kp ([1]; spleen/plasma, 3 mg/kg, read-out: AUCspleen/AUCplasma) was 0.166 and the AUC(0-inf) ([1]; plasma, mean) was 1.03 µg·h/mL. For the same molecule, the Cmax ([1]; plasma, mean) was 0.334 µg/mL, the Tmax ([1]; plasma, mean) was 1 h and the AUC(0-t) ([1]; plasma, mean, read-out: AUClast) was 0.951 µg·h/mL. The half-life ([1]; plasma, mean, read-out: Terminal t1/2 (converted)) was 2.01 h, the AUC(0-t) ([1]; spleen, read-out: AUClast (spleen)) was 0.157 µg·h/mL and the DNAUC0_20 [2] was 0.1266 µg·h/mL.
